The target in data set [1] is T1, human calcitonin receptor (Homo sapiens, UniProt P30988).
T1 construct: expressed in transfected cells; host or cells: BHK 570 clone KZ10-20-48 (CRE-luciferase), clone Hollex-1
T1 sequence (P30988 25-474): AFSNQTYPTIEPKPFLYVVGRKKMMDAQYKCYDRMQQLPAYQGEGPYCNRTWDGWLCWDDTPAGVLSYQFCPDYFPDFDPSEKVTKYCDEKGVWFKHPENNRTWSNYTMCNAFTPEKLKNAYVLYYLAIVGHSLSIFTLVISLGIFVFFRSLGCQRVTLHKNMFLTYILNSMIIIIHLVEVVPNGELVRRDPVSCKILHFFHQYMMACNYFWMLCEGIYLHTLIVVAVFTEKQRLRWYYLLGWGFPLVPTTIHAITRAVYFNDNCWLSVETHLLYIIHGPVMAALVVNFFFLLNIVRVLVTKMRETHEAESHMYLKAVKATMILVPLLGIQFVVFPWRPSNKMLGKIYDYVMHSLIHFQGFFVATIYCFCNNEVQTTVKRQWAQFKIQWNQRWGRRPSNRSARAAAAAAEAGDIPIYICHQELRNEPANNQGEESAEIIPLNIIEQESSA
The data set can be described thus: CRE-luciferase induction in Hollex-1 cells (BHK 570 expressing human calcitonin receptor and CRE-luciferase reporter). In kind it is cell-based. The settings on record: BHK 570 cells expressing human calcitonin receptor and CRE-luciferase reporter (Hollex-1).

A short description of data set [2]: Solubility of isolated powders in organic solvents. The class given is physicochemical.
In data set [3] the test system is osteoclasts in mouse calvariae. The data set can be described thus: Calvaria histology (TRAP-stained osteoclast number and size). In kind it is cell-based. The source says:
To confirm the findings in the calvarial bone resorption assay employing calcium release from culture mouse calvariae, selected bones were fixed in 10% neutral buffered formalin and demineralized in 5% formic acid with 5% formalin. The bones were dehydrated through an ascending series of ethanol concentrations, infiltrated in glycol methacrylate, and embedded using a JB-4 embedding kit (PolySciences, Warrington, Pa.) (Liu and Kalu, J. Bone Miner. Res., 5:973-82, 1990). Cross sections of calvariae cut at 5 μm were obtained and stained for tartrate-resistant acid phosphatase (TRAP) activity and counterstained with methyl green and thionin for cell morphology (Liu and Kalu, J. Bone. Miner. Res. 1990, supra). Osteoclasts were identified by TRAP stain, multinucleation, large cell size, and irregular cell shape. The number of osteoclasts were counted from endocranial and ectocranial bone surfaces and expressed as number/mm perimeter. The size of all the osteoclasts counted was also measured using a Bone Morphometry program (Lui and Kalu, supra.; Bain et al., J. Done Miner. Res. 8:435-42, 1993). […] This PTH-induced increase was suppressed by treatment with human calcitonin.
Calcitonin mimetic compounds were evaluated in a similar fashion for their ability to suppress PTH-induced increases in osteoclast number and size. Cell toxicity (or death) was also evaluated morphologically. […]

The test system of data set [4] is PTH-Induced Bone Resorption in Mouse Calvariae. The experiment in a line: Calvarial assay: PTH-induced bone resorption (calcium release). In kind it is cell-based. The settings on record: 1 nM PTH 1-34, 72 hours, read-out: Inhibition of Ca++ Release EC50. As for the experimental part: Calvaria from 4-day old neonatal CD-1 mice (pregnant mice received from Charles River Laboratories, Wilmington, Mass.) were trimmed with fine-tipped scissors to leave the parietal regions, including the sagittal suture. These trimmed bones were placed singly per well into 6-well cell culture cluster plates (Costar, Pleasanton, Calif.) with 1 ml/well of growth medium (DMEM, BioWhittaker, Walkersville, Md.) with 4.5 g/L glucose, 0.29 mg/ml L-glutamine, 1 mM sodium pyruvate, 15% heat-inactivated horse serum, and antibiotics (penicillin-G 50 μg/ml, streptomycin 50 μg/ml, and neomycin 100 μg/ml), and rocked gently (RedRocker™, model PR50-115V, Hoefer, San Francisco, Calif.) at 37° C. in a 5% CO2 humidified incubator for 24 hours preincubation.
Following incubation, medium was removed and replaced with 1.5 ml/well of growth medium containing 1 nM parathyroid hormone (PTH) 1-34 (Sigma) to stimulate bone resorption. For evaluation of the ability of calcitonin mimetics to inhibit PTH induced bone resorption, mimetic compounds in DMSO were added to the growth medium at concentrations ranging from 1-240 μg/ml (final assay concentration of DMSO less than or equal to 1%). In each experiment human calcitonin (0.02-20 nM, 0.2-2 nM preferred) was added to PTH treated bones as a positive control. […]

Data set [5] deals with T2, human glucagon receptor (Homo sapiens, UniProt P47871). The data set can be described thus: cell-based.
Data set [6] relates to KZ10-20-48 cells (CRE-luciferase reporter). The experiment in a line: CRE-luciferase induction in parent reporter line BHK/KZ10-20-48. In kind it is cell-based, baby hamster. The settings on record: clone KZ10-20-48, 25 mM forskolin, 4 hours; range 15-25 fold. As for the experimental part:
Stable transfectants were selected by growth in Dulbecco's modified Eagle's medium (DMEM) supplemented with 10% heat inactivated fetal bovine serum (HI-FBS), 2 mM L-glutamine and 1 mM sodium pyruvate containing 250 nM methotrexate (MTX) for 10-14 days. Clones were isolated, grown to confluence in opaque white microtiter plates (Dynatech, Chantilly, Va.), then treated with […], which elevates cellular cAMP through direct activation of adenylate cyclase (Berkowitz and Gilman, Proc. Nat. Acad. Sci. USA 87:5258-62, 1990) for 4 hours at 37° C., 5% CO2 . Following incubation, cells were lysed and assayed for luciferase induction in a Labsystems Luminoskan microtiter luminometer (Labsystems Inc., Morton Grove, Ill.) using a Promega luciferase kit (El500, Promega Corp., Madison, Wis.), as described below.

In data set [7] the test system is human calcitonin receptor. The experiment in a line: CRE-luciferase induction in Hollex-1 cells (BHK 570 expressing human calcitonin receptor and CRE-luciferase reporter). In kind it is cell-based. The note with it: Hollex-1 clone; read-out: forskolin EC50, CRE-luciferase induction.
For data set [8], the target named is T2, human glucagon receptor. The note with it: KZ10-20-48/pLJ6-4-25 clone.
Data set [9] concerns KZ10-20-48/Zem 228 cells (calcitonin receptor negative). The data set can be described thus: CRE-luciferase induction in calcitonin receptor negative line KZ10-20-48/Zem 228 (specificity control). In kind it is cell-based, baby hamster.
The target of data set [10] is hamster calcitonin receptor (Mesocricetus auratus, UniProt A0A3Q0D7K7). The experiment in a line: CRE-luciferase induction in Boris/KZ10-3 cells (calcitonin receptor positive).
[11] abbreviates: in acetonitrile, ethyl acetate, and chloroform.
Setting [12] is: in methanol, ethanol, n-butanol and dimethyl sulfoxide.

pEC50: −log10 of the molar value. Where a SMILES comes first, the peptide text is derived from it. [ ]: non-standard residue; d: D form. ξ: configuration not given here. ξPro(4ξ-Me) = CC1CNC(C(=O)O)C1; ξIva = CCC(C)(N)C(=O)O; Aib = CC(C)(N)C(=O)O

T2 sequence (P47871 26-477): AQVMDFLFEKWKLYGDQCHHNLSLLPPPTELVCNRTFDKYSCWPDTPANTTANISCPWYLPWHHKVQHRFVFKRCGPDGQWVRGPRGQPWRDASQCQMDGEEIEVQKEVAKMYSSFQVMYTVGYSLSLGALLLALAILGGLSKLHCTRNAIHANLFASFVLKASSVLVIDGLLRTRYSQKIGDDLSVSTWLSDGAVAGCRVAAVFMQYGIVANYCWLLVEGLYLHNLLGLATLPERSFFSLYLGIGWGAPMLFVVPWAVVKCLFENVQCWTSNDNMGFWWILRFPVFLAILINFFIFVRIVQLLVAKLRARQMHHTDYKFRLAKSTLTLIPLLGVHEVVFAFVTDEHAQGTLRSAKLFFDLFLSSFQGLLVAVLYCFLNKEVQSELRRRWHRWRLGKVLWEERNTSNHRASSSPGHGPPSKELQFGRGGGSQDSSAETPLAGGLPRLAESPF
hamster calcitonin receptor, sequence (A0A3Q0D7K7 entry or part of it): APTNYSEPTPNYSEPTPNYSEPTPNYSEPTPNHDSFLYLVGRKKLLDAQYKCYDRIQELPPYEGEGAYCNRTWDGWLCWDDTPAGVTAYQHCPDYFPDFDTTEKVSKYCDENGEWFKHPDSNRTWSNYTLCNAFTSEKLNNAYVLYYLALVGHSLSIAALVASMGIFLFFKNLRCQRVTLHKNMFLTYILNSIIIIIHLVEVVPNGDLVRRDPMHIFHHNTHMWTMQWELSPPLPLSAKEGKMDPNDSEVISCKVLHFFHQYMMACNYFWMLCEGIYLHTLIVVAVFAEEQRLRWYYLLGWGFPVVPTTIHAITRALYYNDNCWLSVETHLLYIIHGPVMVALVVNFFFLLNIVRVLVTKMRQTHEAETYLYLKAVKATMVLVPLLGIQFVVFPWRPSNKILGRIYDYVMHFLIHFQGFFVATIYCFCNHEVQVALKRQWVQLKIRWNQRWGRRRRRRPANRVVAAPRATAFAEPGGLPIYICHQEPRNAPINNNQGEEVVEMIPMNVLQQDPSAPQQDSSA

For the molecule `CC[C@H](C)[C@H](NC(=O)C(C)(C)NC(=O)[C@H](CCC(N)=O)NC(=O)C(C)(CC)NC(=O)[C@H](Cc1c[nH]c2ccccc12)NC(C)=O)C(=O)N[C@H](C(=O)NC(C)(C)C(=O)N[C@@H](CC(C)C)C(=O)NC(C)(C)C(=O)N1CCC[C@H]1C(=O)N[C@@H](CCC(N)=O)C(=O)NC(C)(C)C(=O)N1CCC[C@H]1C(=O)NC(C)(C)C(=O)N1CC(C)CC1C(=O)N[C@@H](Cc1ccccc1)C(=O)NCC(=O)O)[C@@H](C)O` (stereo partly drawn) [ZG 2807 A, Acetyl-Trp-Xaal-Gln-2-aminoisobutyric acid (Aib)-Ile-Thr-Aib-Leu-Aib-Pro-Gln-Aib-Pro-Aib-Xaa2-Phe-Gly] (Ac-W[ξIva]Q[Aib]IT[Aib]L[Aib]PQ[Aib]P[Aib][ξPro(4ξ-Me)]FG-OH), the pEC50 in data set [1] was 6.30; in data set [4], 4.48. In addition, the solubility entry in [2] (setting [11]) is “slightly soluble”; in data set [2] (in hexane) it was “insoluble”; in data set [2] (setting [12]), “readily soluble”. The Histology result in [3] (PTH-treated mouse calvariae, the cell wraps over two lines: 'Inhibition of osteoclast size') is “Inhibition of osteoclast”.
As for `CC[C@H](C)[C@H](NC(=O)C(C)(C)NC(=O)[C@H](CCC(N)=O)NC(=O)C(C)(CC)NC(=O)[C@H](Cc1c[nH]c2ccccc12)NC(C)=O)C(=O)N[C@H](C(=O)NC(C)(C)C(=O)N[C@@H](CC(C)C)C(=O)NC(C)(C)C(=O)N1CCC[C@H]1C(=O)N[C@@H](CCC(N)=O)C(=O)NC(C)(C)C(=O)N1CCC[C@H]1C(=O)NC(C)(C)C(=O)N1CC(C)CC1C(=O)N[C@@H](Cc1ccccc1)C(=O)O)[C@@H](C)O` (stereo partly drawn) [ZG 2807 B, Acetyl-Trp-Xaal-Gln-Aib-Ile-Thr-Aib-Leu-Aib-Pro-Gln-Aib-Pro-Aib-Xaa2-Phe] (Ac-W[ξIva]Q[Aib]IT[Aib]L[Aib]PQ[Aib]P[Aib][ξPro(4ξ-Me)]F-OH), in data set [1], the pEC50 was 6.28. Further, the solubility entry in data set [2] (setting [11]) is listed as “slightly soluble”; in data set [2] (in hexane) it was “insoluble”; in [2] (setting [12]), “readily soluble”.
As for `C=C[C@@]1(C)CC(=O)[C@]2(O)[C@@]3(C)[C@@H](O)CCC(C)(C)[C@@H]3[C@H](O)[C@H](OC(C)=O)[C@@]2(C)O1` [forskolin], the pEC50 in data set [5] is 5.68; in [7], 5.92; in data set [9] (Mesocricetus auratus, range 0.5-1.5 μM), 6.22; in data set [10] it was 6.05. Also, the “induction of CRE-luciferase vs basal” value in data set [6] was 20 fold. Besides, the induction of luciferase is reported as 35 fold in data set [8] and 25 fold in [10] (Boris/KZ10-3 clone). Moreover, the “induction of CRE-luciferase” value in data set [9] (range 20-35 fold) was 30 fold.
With “parathyroid hormone (PTH) 1-34 (SVSEIQLMHNLGKHLNSMERVEWLRKKLQDVHNF; Parathyroid hormone; UniProt P01270 32-65, looked up, fragment) [PTH 1-34, stimulus of bone resorption in the calvarial assay, reference compound]”, in data set [3] (cultured mouse calvariae, calcitonin tested against the PTH-induced increase), the “number and size of osteoclasts (histomorphometry)” value is “increases in the number and size of osteoclasts”.

Values taken from patent publication US5698521A, “Native calcitonin mimetics” (ZymoGenetics, Inc., priority 1995, dated 1997).
